Source: US20250320204A1 (RIBOSCIENCE LLC, priority 2023, published 2025)

biological target: T1, ENPP1 (Homo sapiens, UniProt P22413); experiment: Measurement of pNP-TMP hydrolysis by ENPP1; assay type: biochemical; settings: pNP-TMP substrate 500 μM, Km 232 μM; Ki from IC50 by Cheng-Prusoff
T1 sequence (P22413 1-925): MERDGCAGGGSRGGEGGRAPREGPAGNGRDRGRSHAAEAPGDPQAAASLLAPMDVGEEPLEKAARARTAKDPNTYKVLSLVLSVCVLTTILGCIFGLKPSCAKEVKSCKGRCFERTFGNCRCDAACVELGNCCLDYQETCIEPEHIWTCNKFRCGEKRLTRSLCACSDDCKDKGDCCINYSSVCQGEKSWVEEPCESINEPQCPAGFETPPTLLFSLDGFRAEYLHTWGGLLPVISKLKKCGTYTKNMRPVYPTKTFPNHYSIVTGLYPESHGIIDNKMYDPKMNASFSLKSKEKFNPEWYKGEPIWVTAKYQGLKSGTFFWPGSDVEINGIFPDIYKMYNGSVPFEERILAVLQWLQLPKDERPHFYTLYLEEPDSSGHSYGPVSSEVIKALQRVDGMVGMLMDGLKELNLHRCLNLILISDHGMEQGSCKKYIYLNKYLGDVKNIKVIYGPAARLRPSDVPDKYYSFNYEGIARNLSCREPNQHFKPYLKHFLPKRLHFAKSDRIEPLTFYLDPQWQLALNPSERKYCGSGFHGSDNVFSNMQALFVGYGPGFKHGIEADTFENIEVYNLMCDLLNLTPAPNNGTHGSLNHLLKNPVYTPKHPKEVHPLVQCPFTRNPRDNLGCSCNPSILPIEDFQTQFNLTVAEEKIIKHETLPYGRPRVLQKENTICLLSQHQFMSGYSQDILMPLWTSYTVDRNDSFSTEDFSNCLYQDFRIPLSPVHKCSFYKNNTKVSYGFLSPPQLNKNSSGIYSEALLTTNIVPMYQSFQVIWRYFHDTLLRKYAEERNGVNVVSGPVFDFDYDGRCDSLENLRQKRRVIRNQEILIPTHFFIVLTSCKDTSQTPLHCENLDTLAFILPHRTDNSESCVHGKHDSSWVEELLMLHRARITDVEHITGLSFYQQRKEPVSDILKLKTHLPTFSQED
Description: Measurement of pNP-TMP hydrolysis by ENPP1
p-Nitrophenyl thymidine 5′-monophosphate (pNP-TMP) is a synthesized substrate for ENPP1. The ENPP1 enzyme activity assay with pNP-TMP substrate was conducted as follows:
First, in a 60 μl reaction, 7.5 ng purified ENPP1 was mixed with 1.2 μl compounds of Formula (I) (test compound) ranging from 13.7 nM to 10 μM. Incubation of ENPP1 with compounds was set at 25° C. for 10 min. Reactions with DMSO only (with ENPP1 but no compound) gave the fastest reaction (MAX Activity). For each compound dilution, wells with assay buffer (50 mM Tris -HCl, pH8.8, 250 mM NaCl, 0.1 mg/ml BSA) and test compounds but no ENPP1 were included as controls for the subtraction of test compound derived absorbance at 405 nm.
Second, after 10 minutes incubation of ENPP1 and test compound, the assay was initiated by transferring 50 μl of the above mentioned ENPP1/test compound reaction into 50 μl of 1 mM pNP-TMP in assay buffer results in a 100 μl total reaction in non-binding surface clear bottom 96 well plates. Absorbance at 405 nm was recorded immediately in kinetic mode by PerkinElmer 2300 Enspire multimode plate reader.
For each inhibitor, the specific ENPP1 activity was calculated using the following equation: ENPP1 activity (pmol/min/μg)=Adjusted Vmax (OD405 nm/min) X conversion factor (pmol/OD405 nm)/amount of enzyme (μg)
Adjusted Vmax=V0X (Km+(S))/(S). In this assay, Km=232 μM, (S)=500 μM. Adjusted Vmax=1.464 X V0.
V0=(OD405 nm with ENPP1-OD405 nm ENPP1 blank)/minutes. OD405 nm was plotted, with blank subtracted, against time (minutes), the initial linear rate is V0.
The conversion factor (pmol/OD405 nm), was determined by plotting the amount of standard, 4-Nitrophenol (Sigma -Aldrich, Catalog #241326), against absorbance at 405 nm. The slope is the conversion factor. The percent ENPP1 activity for each sample was calculated using the following equation: […]
To determine the IC50 for each compound, compound concentration values and percent enzyme activity values were inserted into GraphPad Prism (GraphPad Prism version 9.0 for Windows, GraphPad Software, La Jolla California USA, www.graphpad.com), and Prism's Transform analysis was used to convert the x-axis values (compound concentration) to logarithms. A sigmoidal variable slope nonlinear regression analysis was performed using the following equation: Y=Bottom+ (Top-Bottom)/(1+10^((Log IC50″X) *HillSlope)).
Ki values for each compound were calculated from the observed IC50 from GraphPad analysis using the Cheng-Prusoff equation: Ki=IC50/(1+(S)/KM). (S) here is 500 μM and KM is determined to be 232 μM.

Row | Compound | Ki [nM]
1 | CS(=N)(=O)CC1CC2(C1)CN(c1ncnc3c(O)nccc13)C2 (single isomer, unassigned) [Example 2b, ((2-(8-hydroxypyrido[3,4-d]pyrimidin-4-yl)-2-azaspiro[3.3]heptan-6-yl)methyl) (imino)(methyl)-lambda6-sulfanone] | 10 to 100
2 | CS(=N)(=O)CCC1(O)CCN(c2ccnc3c(OCF)nccc23)CC1 (stereo not shown) [Example 63, (2-(1-(8-(fluoromethoxy)-1,7-naphthyridin-4-yl)-4-hydroxypiperidin-4-yl)ethyl)-(imino)(methyl)-lambda6-sulfanone] | 10 to 100
3 | CN=S(C)(=O)N1CCC2(CCN(c3ccnc4c(OC)nccc34)C2)CC1 (stereo not shown) [Example 53, ((2-(8-methoxy-1,7-naphthyridin-4-yl)-2,8-diazaspiro(4.5)decan-8-yl)(methyl)oxo-lambda6-sulfanylidene)(methyl)amine] | 100 to 10000
4 | COc1nccc2c(OCc3cccc([S@@](C)(=N)=O)c3)ccnc12 [Example 75, (S)-imino (3-(((8-methoxy-1,7-naphthyridin-4-yl)oxy)methyl)phenyl)(methyl)-lambda6-sulfanone] | < 10
5 | CS(=N)(=O)CC1CC2(C1)CN(c1ccnc3cnccc13)C2 (stereo not shown) [Example 1, imino(methyl) [[2-(1,7-naphthyridin-4-yl)-2-azaspiro[3.3]heptan-6-yl]methyl]-lambda6-sulfanone] | < 10
6 | CN=S(=O)(c1cccc(COc2ncnc3c(OC)nccc23)c1)C1CC1 (stereo not shown) [Example 56, cyclopropyl(3-(((8-methoxypyrido[3,4-d]pyrimidin-4-yl)oxy)methyl)phenyl)-(methylimino)-lambda6-sulfanone] | 100 to 10000
7 | COc1nccc2c(OCc3cc(F)cc([S@](C)(=N)=O)c3)ccnc12 (single isomer, unassigned) [Example 70] | 10 to 100
8 | CC(C)Oc1nccc2c(OCc3cccc(S(=N)(=O)C4CC4)c3)ccnc12 (stereo not shown) [Example 61, cyclopropyl(imino) (3-(((8-isopropoxy-1,7-naphthyridin-4-yl)oxy)methyl)phenyl)-lambda6-sulfanone] | 100 to 10000
9 | CN=S(=O)(c1cccc(COc2ccnc3c(OC)nccc23)c1)C1CC1 (stereo not shown) [Example 55, cyclopropyl(3-(((8-methoxy-1,7-naphthyridin-4-yl)oxy)methyl)phenyl)(methylimino)-lambda6-sulfanone] | 100 to 10000
10 | CCCOc1nccc2c(OCc3cccc(S(=N)(=O)C4CC4)c3)ccnc12 (stereo not shown) [Example 62, cyclopropyl(imino) (3-(((8-propoxy-1,7-naphthyridin-4-yl)oxy)methyl)phenyl)-lambda6-sulfanone] | 100 to 10000
11 | COc1nccc2c(N3CC(CCCS(C)(=N)=O)C3)ccnc12 (stereo not shown) [Example 3, imino (3-(1-(8-methoxy-1,7-naphthyridin-4-yl)azetidin-3-yl)propyl)(methyl)-lambda6-sulfanone] | < 10
12 | CS(=N)(=O)CCC1CCN(c2ccnc3c(OCF)nccc23)CC1 (stereo not shown) [Example 65, (2-(1-(8-(fluoromethoxy)-1,7-naphthyridin-4-yl)piperidin-4-yl)ethyl)-(imino)(methyl)-lambda6-sulfanone] | < 10
13 | COc1nccc2c(Oc3cccc(S(C)(=N)=O)c3)ccnc12 (stereo not shown) [Example 51, imino (3-((8-methoxy-1,7-naphthyridin-4-yl)oxy)phenyl)(methyl)-lambda6-sulfanone] | 100 to 10000
14 | COc1nccc2c(OCc3cc(S(=N)(=O)C4CC4)ccc3F)ccnc12 (stereo not shown) [Example 59, cyclopropyl(4-fluoro-3-(((8-methoxy-1,7-naphthyridin-4-yl)oxy)methyl)-phenyl) (imino)-lambda6-sulfanone] | < 10
15 | COc1nccc2c(OCc3cccc([S@](=N)(=O)C4CC4)c3)ccnc12 [Example 17a, (R)-Cyclopropyl(imino)(3-(((8-methoxy-1,7-naphthyridin-4-yl)oxy)methyl)phenyl)-lambda6-sulfanone] | 10 to 100
16 | N=S(=O)(c1cccc(COc2ccnc3c(OC4CC4)nccc23)c1)C1CC1 (stereo not shown) [Example 60, (3-(((8-cyclopropoxy-1,7-naphthyridin-4-yl)oxy)methyl)phenyl)-(cyclopropyl) (imino)-lambda6-sulfanone] | 100 to 10000
17 | CCOc1nccc2c(N3CCC(O)(CS(C)(=N)=O)CC3)ccnc12 (stereo not shown) [Example 46, ((1-(8-ethoxy-1,7-naphthyridin-4-yl)-4-hydroxypiperidin-4-yl)methyl) (imino)-(methyl)-lambda6-sulfanone] | < 10
18 | COc1nccc2c(N3CCC4(C3)CN(S(C)(=N)=O)C4)ccnc12 (stereo not shown) [Example 44, 8-methoxy-4-(2-(S-methylsulfonimidoyl)-2,6-diazaspiro(3.4)octan-6-yl)-1,7-naphthyridine] | < 10
19 | N=[S@](=O)(c1cccc(COc2ccnc3c(OCF)nccc23)c1)C1CC1 (single isomer, unassigned) [Example 42] | 10 to 100
20 | CS(=N)(=O)c1ccc(COc2ccnc3cnccc23)cc1 (stereo not shown) [Example 7] | 10 to 100
21 | CN=S(C)(=O)CC1(O)CCN(c2ccnc3c(OC)nccc23)CC1 (stereo not shown) [Example 57, ((4-hydroxy-1-(8-methoxy-1,7-naphthyridin-4-yl)piperidin-4-yl)methyl)(methyl)-(methylimino)-lambda6-sulfanone] | < 10
22 | COc1nccc2c(OCc3cc(F)cc([S@](=N)(=O)C4CC4)c3)ccnc12 (single isomer, unassigned) [Example 68] | < 10
23 | COc1nccc2c(Oc3ccc(S(C)(=N)=O)cc3)ccnc12 (stereo not shown) [Example 50, imino (4-((8-methoxy-1,7-naphthyridin-4-yl)oxy)phenyl)(methyl)-lambda6-sulfanone] | < 10
24 | COc1nccc2c(OCc3cccc([S@](=N)(=O)C(C)(C)C)c3)ccnc12 [Example 76, (R)-tert-butyl(imino) (3-(((8-methoxy-1,7-naphthyridin-4-yl)oxy)methyl)phenyl)-lambda6-sulfanone] | 10 to 100
25 | CN=S(C)(=O)CC1CC2(C1)CN(c1ccnc3c(OC)nccc13)C2 (stereo not shown) [Example 58, ((2-(8-methoxy-1,7-naphthyridin-4-yl)-2-azaspiro(3.3)heptan-6-yl)methyl-methyl)(methylimino)-lambda6-sulfanone] | 100 to 10000
26 | COc1nccc2c(OCc3cccc([S@@](=N)(=O)C(C)C)c3)ccnc12 [Example 84, (S)-imino(isopropyl)(3-(((8-methoxy-1,7-naphthyridin-4-yl)oxy)methyl)phenyl)-lambda6-sulfanone] | < 10
27 | COc1nccc2c(N3CCC(O)(CS(=N)(=O)C4CC4)CC3)ccnc12 (stereo not shown) [Example 4, cyclopropyl((4-hydroxy-1-(8-methoxy-1,7-naphthyridin-4-yl)piperidin-4-yl)-methyl) (imino)-lambda6-sulfanone] | < 10
28 | CS(=N)(=O)CC1(O)CCN(c2ccnc3c(OC4CC4)nccc23)CC1 (stereo not shown) [Example 52, ((1-(8-cyclopropoxy-1,7-naphthyridin-4-yl)-4-hydroxypiperidin-4-yl)methyl) (imino)(methyl)-lambda6-sulfanone] | 10 to 100
